The values that follow come from US12502369B2, “Methods of cancer treatment” (K-GEN, INC., priority 2015, dated 2025).

Molecules are shown by their SMILES. Like-named read-outs stand apart in the source and are kept apart here. Where only a bound is given, the exact number is not on record here.

Holding throughout (type): cell-based
One assay relates to Capan-1. Kind of assay: Proliferation assay (CellTiter Glo), Capan-1. On the procedure: (§1) Briefly, cells at a density of 1,000-10,000 cells/well were seeded in 96-well plates and incubated at 37′C for 24 hours. A series of 9 different concentrations of compound stocks (500×) were created by 3-fold serial dilution in DMSO. These compounds were further diluted in culture media and then added to cells so that the final DMSO concentration was 0.2%. After 96 hours of incubation, 50 μL of CellTiter Glo reagent (Promega) was added to each well and luminescence was measured after 10 minutes using EnVision (PerkinElmer). […] The dose range for most compounds was 4.6 nM-30 μM. The dose ranges for some compounds were adjusted downward to 0.46 nM-3 μM or 0.08 nM-0.5 μM or 0.03 nM-0.2 μM. Luminescence from cells treated with […] alone was set as Max and % of inhibition was calculated as follows: Inhibition %=(Max-Sample value)/Max*100. Data was analyzed using XL-fit software (ID Business Solutions Ltd.) and EC50, relative EC50, and % of top inhibition were calculated. The results are shown in Tables 3-6 for pancreatic cancer, lung cancer, colon/gastric cancer, and leukemia cell lines.
A general note: In ATP-based viability assays light output follows the ATP content of the culture.

The next assay relates to KP-4. Kind of assay: Proliferation assay (CellTiter Glo), KP-4. Here is the method:
as §1

The subject of another assay is MiaPaCa-2. Kind of assay: Proliferation assay (CellTiter Glo), MiaPaCa-2. Here is the method:
as §1, with “calculated.” for “calculated. The results are shown in Tables 3-6 for pancreatic cancer, lung cancer, colon/gastric cancer, and leukemia cell lines.”

For the next assay, the system named is A549. Kind of assay: Proliferation assay (CellTiter Glo), A549. Here is the method:
as §1

The test system of the next assay is H358. Kind of assay: Proliferation assay (CellTiter Glo), H358. Here is the method:
as §1

Another assay concerns H441. As to the kind of experiment: Proliferation assay (CellTiter Glo), H441. On the procedure: as §1
A further assay deals with H727. As to the kind of experiment: Proliferation assay (CellTiter Glo), H727. On the procedure: as §1
A further assay deals with LS180. As to the kind of experiment: Proliferation assay (CellTiter Glo), LS180. Here is the method:
as §1

Another assay has as its system SW620. Kind of assay: Proliferation assay (CellTiter Glo), SW620. On the procedure:
as §1

Another assay relates to HCT116. Kind of assay: Proliferation assay (CellTiter Glo), HCT116. Here is the method: as §1
In another assay the test system is AGS. Kind of assay: Proliferation assay (CellTiter Glo), AGS. On the procedure: as §1
Another assay deals with HL60. Kind of assay: Proliferation assay (CellTiter Glo), HL60. Here is the method:
as §1

The test system of the next assay is THP1. As to the kind of experiment: Proliferation assay (CellTiter Glo), THP1. Here is the method:
as §1

For the next assay, the system named is BxPC-3. Kind of assay: Proliferation assay (CellTiter Glo), BxPC-3. Particulars: BxPC-3 (WT K-ras). On the procedure:
as §1, with “calculated.” for “calculated. The results are shown in Tables 3-6 for pancreatic cancer, lung cancer, colon/gastric cancer, and leukemia cell lines.”
(§2) Other cancer cell lines having wild-type K-ras status and K-ras mutation at G12 were also screened using the PKC activator compounds. […] K-104 was tested in a range of 0.03 nM-0.2 μM. […] The dose ranges were adjusted downward to 0.46 nM-3 μM for K-102 and 0.08 nM-0.5 μM for K-103 for some cell lines.

The test system of a further assay is SW900. As to the kind of experiment: Proliferation assay (CellTiter Glo), SW900. Particulars: SW900 (K-ras: G12V). Here is the method:
as §1, with “calculated.” for “calculated. The results are shown in Tables 3-6 for pancreatic cancer, lung cancer, colon/gastric cancer, and leukemia cell lines.”
as §2

The next assay relates to H838. As to the kind of experiment: Proliferation assay (CellTiter Glo), H838. Particulars: H838 (WT K-ras). On the procedure: as §1, with “calculated.” for “calculated. The results are shown in Tables 3-6 for pancreatic cancer, lung cancer, colon/gastric cancer, and leukemia cell lines.”
as §2

Another assay concerns H1915. Kind of assay: Proliferation assay (CellTiter Glo), H1915. The conditions noted are these: H1915 (WT K-ras). On the procedure: as §1, with “calculated.” for “calculated. The results are shown in Tables 3-6 for pancreatic cancer, lung cancer, colon/gastric cancer, and leukemia cell lines.”
as §2

The test system of the next assay is HT29. As to the kind of experiment: Proliferation assay (CellTiter Glo), HT29. Particulars: HT29 (WT K-ras). Here is the method: as §1, with “calculated.” for “calculated. The results are shown in Tables 3-6 for pancreatic cancer, lung cancer, colon/gastric cancer, and leukemia cell lines.”
as §2

A further assay concerns Colo205. As to the kind of experiment: Proliferation assay (CellTiter Glo), Colo205. The conditions noted are these: Colo205 (WT K-ras). On the procedure: as §1, with “calculated.” for “calculated. The results are shown in Tables 3-6 for pancreatic cancer, lung cancer, colon/gastric cancer, and leukemia cell lines.”
as §2

In another assay the test system is RPMI8226. As to the kind of experiment: Proliferation assay (CellTiter Glo), RPMI8226. Particulars: RPMI8226 (K-ras: G12A). On the procedure: as §1, with “calculated.” for “calculated. The results are shown in Tables 3-6 for pancreatic cancer, lung cancer, colon/gastric cancer, and leukemia cell lines.”
as §2

A further assay concerns AsPC-1. Kind of assay: Proliferation assay (CellTiter Glo), AsPC-1. Here is the method: as §1
Another assay has as its system Panc2.03. As to the kind of experiment: Proliferation assay (CellTiter Glo), Panc2.03. Particulars: for Top inhibition %: 96 hours. On the procedure:
as §1

Another assay concerns Panc2.13. As to the kind of experiment: Proliferation assay (CellTiter Glo), Panc2.13. On the procedure: as §1
The subject of the next assay is CCRF-CEM. Kind of assay: Proliferation assay (CellTiter Glo), CCRF-CEM. On the procedure:
as §1

In assay [1] the test system is K-Ras mutant pancreatic, lung, and colon cancer cell lines, leukemia cell lines. As to the kind of experiment: Proliferation assays, panel of cancer cell lines (summary statements). Here is the method: as §1
Where [2] appears, read: absolute EC50, 96 hours, read-out: Ab EC50.
Where [3] appears, read: relative EC50, 96 hours, read-out: Re EC50.

The EC50 is the concentration at which the effect is half-maximal. On to `CC(=O)O[C@@]12C[C@@H](C)[C@]3(O)C4C=C(C)C(O)[C@@]4(O)CC(CO)=C[C@H]3[C@@H]1C2(C)C` (some centres unmarked) [Compound K-101C], for which the Top inhibition % in the assay on Capan-1 (96 hours) is on record as 35.7%; with KP-4 (96 hours) it was 70.4%; in the assay on MiaPaCa-2 (96 hours), 40.1%; with A549 (96 hours) it was 70.3%; in the assay on H358 (96 hours), 44.0%; in the assay with H441 (96 hours), 37.0%. Moreover, the Top inhibition % with H727 (96 hours) turned out to be 42.8%; in the assay with LS180 (96 hours), 6.8%; in the assay on SW620 (96 hours), 0.0%; with HCT116 (96 hours), 12.2%; in the assay with AGS (96 hours) it was 25.3%; with HL60 (96 hours) it was 63.9%. The Top inhibition % in the assay with THP1 (96 hours) worked out at 51.4%; in the assay on BxPC-3 it was 36.67%; in the assay on SW900, 10.9%; in the assay with H838, 20.2%; in the assay with H1915, 28.9%; with HT29, 4.8%. Also, the “Top inhibition %” value in the assay on Colo205 is listed as 73.2%; in the assay with RPMI8226 it was 22.72%. Moreover, the concentration for a half-maximal effect (EC50) with Capan-1 (setting [2]) is above 30 µM; in the assay with Capan-1 (setting [3]), 5.4 µM; in the assay on KP-4 (setting [2]), 11 µM; with KP-4 (setting [3]), 6.77 µM; with MiaPaCa-2 (setting [2]) it was above 30 µM; with MiaPaCa-2 (setting [3]), 4.37 µM. Also, the EC50 with A549 (setting [2]) was 13 µM; in the assay with A549 (setting [3]) it was 6.68 µM; in the assay with H358 (setting [2]), above 30 µM; in the assay on H358 (setting [3]), 4.98 µM; in the assay with H441 (setting [2]), above 30 µM; in the assay with H441 (setting [3]) it was 7.44 µM. The EC50 is above 30 µM in the assay with H727 (setting [2]); 3.61 µM in the assay with H727 (setting [3]); above 30 µM with LS180 (setting [2]); above 30 µM with SW620 (setting [2]); above 30 µM in the assay with HCT116 (setting [2]); above 30 µM in the assay with AGS (setting [2]). The half-maximal effective concentration (EC50) was 11 µM in the assay on AGS (setting [3]); 17 µM in the assay with HL60 (setting [2]); 13 µM in the assay on HL60 (setting [3]); 16 µM in the assay on THP1 (setting [2]); 8.11 µM with THP1 (setting [3]).
Regarding `CC(=O)O[C@@]12C[C@@H](C)[C@]3(O)C4C=C(C)C(=O)[C@@]4(O)CC(COC(=O)CC(N)C(=O)[O-])=C[C@H]3[C@@H]1C2(C)C.[Na+]` (some centres unmarked) [Compound K-101I], the Top inhibition % is 25.0% in the assay with AsPC-1 (96 hours); 26.3% in the assay with Panc2.03; 48.3% in the assay on Panc2.13 (96 hours); 37.4% with CCRF-CEM (96 hours); 38.12% with BxPC-3; 10.8% in the assay on SW900. The “Top inhibition %” value with H838 turned out to be 29.3%; in the assay on H1915 it was 16.4%; in the assay with HT29 it was 11.8%; with Colo205 it was 82.2%; in the assay with RPMI8226, 17.60%. For the same compound, the EC50 in the assay on AsPC-1 (setting [2]) was above 30 µM; with AsPC-1 (setting [3]) it was 6.64 µM; in the assay on Panc2.03 (setting [2]), above 30 µM; with Panc2.03 (setting [3]), 6.04 µM; with Panc2.13 (setting [2]) it was above 30 µM; in the assay with Panc2.13 (setting [3]), 0.16 µM. In addition, the EC50 was above 30 µM in the assay on CCRF-CEM (setting [2]) and 1.51 µM in the assay with CCRF-CEM (setting [3]).
In the case of `CCC/C=C/C=C/C(=O)O[C@H]1/C(=C/C(=O)OC)C[C@H]2C[C@H]([C@@H](C)O)OC(=O)C[C@H](O)C[C@@H]3C[C@H](OC(C)=O)C(C)(C)[C@](O)(C[C@@H]4C/C(=C/C(=O)OC)C[C@H](/C=C/C(C)(C)[C@]1(O)O2)O4)O3` [Compound K-104, Bryostatin 1], in assay [1], the “potency in proliferation inhibition relative to prostratin” value is reported as “less potent in proliferation inhibition”. Further, the “activity in cancer cell lines” value in [1] (cell lines with wild-type K-ras and K-ras G12 mutations (Table 7)) was “much lower activity”.
Take `CC(=O)O[C@H]1C(=O)[C@@]2(C)[C@H]([C@H](OC(=O)c3ccccc3)[C@]3(O)C[C@H](OC(=O)[C@H](O)[C@@H](NC(=O)c4ccccc4)c4ccccc4)C(C)=C1C3(C)C)[C@]1(OC(C)=O)CO[C@@H]1C[C@@H]2O` [Paclitaxel, reference compound]: the Top inhibition % in the assay on Panc2.03 was 64.6%.
